From ChEMBL document CHEMBL1201862, “PubChem BioAssay data set” (2004)
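A five-concentration, 48-hour dose response in 96-well plates underlies each endpoint, interpolated linearly between surrounding concentrations. Abbreviation: GI50, concentration required for 50% inhibition of growth.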 Activity calls are given as the source filed them. Cut-off read from the data, not from the text of the source: active = GI50 up to about 1.1 µM and inactive = higher.

Key:
Experiment in all cases: NCI-60 cell line screen, 48 h
786-0 = system: 786-0
A498 = system: A498
A549 = system: A549
ACHN = system: ACHN
CAKI-1 = system: CAKI-1
CCRF-CEM = system: CCRF-CEM
COLO 205 = system: COLO 205
DU-145 = system: DU-145
EKVX = system: EKVX
HCC 2998 = system: HCC 2998
HCT-116 = system: HCT-116
HCT-15 = system: HCT-15
HL-60 = system: HL-60
HOP-62 = system: HOP-62
HOP-92 = system: HOP-92
HT-29 = system: HT-29
Hs-578T = system: Hs-578T
IGROV-1 = system: IGROV-1
K562 = system: K562
KM12 = system: KM12
LOX IMVI = system: LOX IMVI
M14 = system: M14
MCF7 = system: MCF7
MDA-MB-231 = system: MDA-MB-231
MDA-MB-435 = system: MDA-MB-435
MDA-N = system: MDA-N
MOLT-4 = system: MOLT-4
Malme-3M = system: Malme-3M
NCI-H226 = system: NCI-H226
NCI-H23 = system: NCI-H23
NCI-H460 = system: NCI-H460
NCI-H522 = system: NCI-H522
NCI/ADR-RES = system: NCI/ADR-RES
OVCAR-3 = system: OVCAR-3
OVCAR-4 = system: OVCAR-4
OVCAR-5 = system: OVCAR-5
OVCAR-8 = system: OVCAR-8
PC-3 = system: PC-3
RPMI-8226 = system: RPMI-8226
RXF 393 = system: RXF 393
SF-268 = system: SF-268
SF-295 = system: SF-295
SF-539 = system: SF-539
SK-MEL-28 = system: SK-MEL-28
SK-MEL-5 = system: SK-MEL-5
SK-OV-3 = system: SK-OV-3
SN12C = system: SN12C
SNB-19 = system: SNB-19
SNB-75 = system: SNB-75
SR = system: SR
SW-620 = system: SW-620
T47D = system: T47D
TK-10 = system: TK-10
U-251 = system: U-251
UACC-257 = system: UACC-257
UACC-62 = system: UACC-62
BT-549 = system: BT-549
SK-MEL-2 = system: SK-MEL-2
UO-31 = system: UO-31

SMILES: COc1ccc(NC(=O)CSc2nc(C)nc3c2sc(=S)n3-c2ccccc2)cc1
- GI50 (786-0): 3.39 µM (inactive)
- GI50 (A498): 5 µM (inactive)
- GI50 (A549): > 10 µM (inactive)
- GI50 (ACHN): 4.68 µM (inactive)
- GI50 (CAKI-1): 7.46 µM (inactive)
- GI50 (CCRF-CEM): > 10 µM (inactive)
- GI50 (COLO 205): 7.28 µM (inactive)
- GI50 (DU-145): > 10 µM (inactive)
- GI50 (EKVX): 7.67 µM (inactive)
- GI50 (HCC 2998): > 10 µM (inactive)
- GI50 (HCT-116): 8.28 µM (inactive)
- GI50 (HCT-15): > 10 µM
- GI50 (HL-60): > 10 µM (inactive)
- GI50 (HOP-62): 5.27 µM (inactive)
- GI50 (HOP-92): 2.11 µM (inactive)
- GI50 (HT-29): > 10 µM (inactive)
- GI50 (Hs-578T): 3.75 µM (inactive)
- GI50 (IGROV-1): > 10 µM (inactive)
- GI50 (K562): > 10 µM (inactive)
- GI50 (KM12): > 10 µM (inactive)
- GI50 (LOX IMVI): > 10 µM (inactive)
- GI50 (M14): 8.07 µM (inactive)
- GI50 (MCF7): 8.11 µM (inactive)
- GI50 (MDA-MB-231): > 10 µM (inactive)
- GI50 (MDA-MB-435): 7.91 µM (inactive)
- GI50 (MDA-N): > 10 µM (inactive)
- GI50 (MOLT-4): > 10 µM (inactive)
- GI50 (Malme-3M): > 10 µM (inactive)
- GI50 (NCI-H226): 6.85 µM (inactive)
- GI50 (NCI-H23): > 10 µM (inactive)
- GI50 (NCI-H460): 3.73 µM (inactive)
- GI50 (NCI-H522): > 10 µM (inactive)
- GI50 (NCI/ADR-RES): 8.51 µM (inactive)
- GI50 (OVCAR-3): 6.15 µM (inactive)
- GI50 (OVCAR-4): 3.18 µM (inactive)
- GI50 (OVCAR-5): > 10 µM (inactive)
- GI50 (OVCAR-8): > 10 µM (inactive)
- GI50 (PC-3): > 10 µM (inactive)
- GI50 (RPMI-8226): > 10 µM (inactive)
- GI50 (RXF 393): > 10 µM (inactive)
- GI50 (SF-268): > 10 µM (inactive)
- GI50 (SF-295): 7.26 µM (inactive)
- GI50 (SF-539): 2.43 µM (inactive)
- GI50 (SK-MEL-28): > 10 µM (inactive)
- GI50 (SK-MEL-5): > 10 µM (inactive)
- GI50 (SK-OV-3): > 10 µM (inactive)
- GI50 (SN12C): > 10 µM (inactive)
- GI50 (SNB-19): > 10 µM (inactive)
- GI50 (SNB-75): 2.97 µM (inactive)
- GI50 (SR): > 10 µM (inactive)
- GI50 (SW-620): > 10 µM (inactive)
- GI50 (T47D): > 10 µM (inactive)
- GI50 (TK-10): > 10 µM (inactive)
- GI50 (U-251): > 10 µM (inactive)
- GI50 (UACC-257): > 10 µM (inactive)
- GI50 (UACC-62): > 10 µM (inactive)

SMILES: O=C1CCSSCCC(=O)Nc2ccccc2N1
- GI50 (786-0): > 100 µM (inactive)
- GI50 (A498): > 100 µM (inactive)
- GI50 (A549): > 100 µM (inactive)
- GI50 (ACHN): > 100 µM (inactive)
- GI50 (BT-549): > 100 µM (inactive)
- GI50 (CAKI-1): > 100 µM (inactive)
- GI50 (CCRF-CEM): > 100 µM (inactive)
- GI50 (COLO 205): > 100 µM (inactive)
- GI50 (DU-145): > 100 µM (inactive)
- GI50 (EKVX): > 100 µM (inactive)
- GI50 (HCT-116): > 100 µM (inactive)
- GI50 (HCT-15): > 100 µM
- GI50 (HL-60): > 100 µM (inactive)
- GI50 (HOP-62): > 100 µM (inactive)
- GI50 (HOP-92): > 100 µM (inactive)
- GI50 (HT-29): > 100 µM (inactive)
- GI50 (Hs-578T): > 100 µM (inactive)
- GI50 (IGROV-1): > 100 µM (inactive)
- GI50 (K562): 53.5 µM (inactive)
- GI50 (KM12): > 100 µM (inactive)
- GI50 (LOX IMVI): > 100 µM (inactive)
- GI50 (M14): > 100 µM (inactive)
- GI50 (MDA-MB-231): > 100 µM (inactive)
- GI50 (MDA-MB-435): > 100 µM (inactive)
- GI50 (MOLT-4): 34 µM (inactive)
- GI50 (Malme-3M): > 100 µM (inactive)
- GI50 (NCI-H226): > 100 µM (inactive)
- GI50 (NCI-H23): > 100 µM (inactive)
- GI50 (NCI-H460): > 100 µM (inactive)
- GI50 (NCI-H522): > 100 µM (inactive)
- GI50 (NCI/ADR-RES): > 100 µM (inactive)
- GI50 (OVCAR-3): > 100 µM (inactive)
- GI50 (OVCAR-4): > 100 µM (inactive)
- GI50 (OVCAR-5): > 100 µM (inactive)
- GI50 (OVCAR-8): > 100 µM (inactive)
- GI50 (PC-3): > 100 µM (inactive)
- GI50 (RPMI-8226): > 100 µM (inactive)
- GI50 (RXF 393): > 100 µM (inactive)
- GI50 (SF-268): > 100 µM (inactive)
- GI50 (SF-295): > 100 µM (inactive)
- GI50 (SF-539): > 100 µM (inactive)
- GI50 (SK-MEL-28): > 100 µM (inactive)
- GI50 (SK-MEL-2): > 100 µM (inactive)
- GI50 (SK-MEL-5): > 100 µM (inactive)
- GI50 (SK-OV-3): > 100 µM (inactive)
- GI50 (SN12C): > 100 µM (inactive)
- GI50 (SNB-19): > 100 µM (inactive)
- GI50 (SR): > 100 µM (inactive)
- GI50 (SW-620): > 100 µM (inactive)
- GI50 (T47D): > 100 µM (inactive)
- GI50 (TK-10): > 100 µM (inactive)
- GI50 (U-251): > 100 µM (inactive)
- GI50 (UACC-257): > 100 µM (inactive)
- GI50 (UACC-62): > 100 µM (inactive)
- GI50 (UO-31): > 100 µM (inactive)

SMILES: CN(C(=S)Cc1ccc(Cl)c(Cl)c1)C1CCCC[C@@H]1N1CCCC1 (some centres undefined)
- GI50 (786-0): 21.9 µM (inactive)
- GI50 (A498): 13 µM (inactive)
- GI50 (A549): 63.4 µM (inactive)
- GI50 (ACHN): 62.1 µM (inactive)
- GI50 (BT-549): 72.1 µM (inactive)
- GI50 (CAKI-1): 44.6 µM (inactive)
- GI50 (DU-145): > 100 µM (inactive)
- GI50 (EKVX): > 100 µM (inactive)
- GI50 (HCT-116): 48.1 µM (inactive)
- GI50 (HCT-15): 58.1 µM
- GI50 (HL-60): 28.5 µM (inactive)
- GI50 (HOP-62): 54.2 µM (inactive)
- GI50 (HT-29): 16.7 µM (inactive)
- GI50 (IGROV-1): < 0.01 µM (active)
- GI50 (K562): 61 µM (inactive)
- GI50 (KM12): 44.6 µM (inactive)
- GI50 (M14): 18.2 µM (inactive)
- GI50 (MDA-MB-231): 34.4 µM (inactive)
- GI50 (MDA-MB-435): 26.6 µM (inactive)
- GI50 (MDA-N): 17.8 µM (inactive)
- GI50 (MOLT-4): 51.8 µM (inactive)
- GI50 (NCI-H226): 46.6 µM (inactive)
- GI50 (NCI-H23): 44.2 µM (inactive)
- GI50 (NCI/ADR-RES): 85.9 µM (inactive)
- GI50 (OVCAR-3): 26.1 µM (inactive)
- GI50 (OVCAR-4): 84.9 µM (inactive)
- GI50 (OVCAR-5): 59.8 µM (inactive)
- GI50 (PC-3): 31.4 µM (inactive)
- GI50 (RPMI-8226): 31.8 µM (inactive)
- GI50 (SF-295): 17.1 µM (inactive)
- GI50 (SF-539): 55.7 µM (inactive)
- GI50 (SK-MEL-28): 16.7 µM (inactive)
- GI50 (SK-MEL-2): 31.6 µM (inactive)
- GI50 (SK-MEL-5): 18.5 µM (inactive)
- GI50 (SK-OV-3): 58.7 µM (inactive)
- GI50 (SN12C): 63.7 µM (inactive)
- GI50 (SNB-19): > 100 µM (inactive)
- GI50 (SW-620): 20.1 µM (inactive)
- GI50 (T47D): 38 µM (inactive)
- GI50 (TK-10): 27.9 µM (inactive)
- GI50 (U-251): 29.9 µM (inactive)
- GI50 (UACC-62): 17.5 µM (inactive)
- GI50 (UO-31): 19.6 µM (inactive)
